Legend:
[1] = target: T1, Alpha-1A adrenergic receptor (Homo sapiens, UniProt P35348); assay: Binding affinity to human alpha 1A adrenergic receptor expressed in CHO cells assessed as inhibition constant; type: cell-based
T1 sequence (P35348 whole entry): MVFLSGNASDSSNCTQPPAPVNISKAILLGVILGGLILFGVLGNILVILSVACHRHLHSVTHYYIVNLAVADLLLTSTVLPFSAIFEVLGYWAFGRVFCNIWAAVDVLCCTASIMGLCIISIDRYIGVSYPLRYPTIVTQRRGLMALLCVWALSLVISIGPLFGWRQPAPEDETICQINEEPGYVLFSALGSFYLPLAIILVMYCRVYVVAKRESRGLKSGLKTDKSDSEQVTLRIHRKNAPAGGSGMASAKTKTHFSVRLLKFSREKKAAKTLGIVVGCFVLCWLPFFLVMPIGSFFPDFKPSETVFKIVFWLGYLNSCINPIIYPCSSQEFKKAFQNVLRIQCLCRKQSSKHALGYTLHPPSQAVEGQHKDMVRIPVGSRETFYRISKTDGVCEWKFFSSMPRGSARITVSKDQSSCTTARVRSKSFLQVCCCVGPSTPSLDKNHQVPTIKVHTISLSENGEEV

[2] = target: 5-hydroxytryptamine receptor 2B (Homo sapiens, UniProt P41595); assay: Binding affinity to human 5-HT2B receptor expressed in CHO cells assessed as inhibition constant; type: cell-based
D(4) dopamine receptor = D(4) dopamine receptor (Homo sapiens, UniProt P21917); assay: Binding affinity to human D4 receptor expressed in CHO cells assessed as inhibition constant; type: cell-based
[3] = target: 5-hydroxytryptamine receptor 1D (Homo sapiens, UniProt P28221); assay: Binding affinity to human 5-HT1D receptor expressed in CHO cells assessed as inhibition constant; type: cell-based
[4] = target: T2, 5-hydroxytryptamine receptor 1A (Homo sapiens, UniProt P08908); assay: Binding affinity to human 5-HT1A receptor expressed in CHO cells assessed as inhibition constant; type: cell-based
T2 sequence (P08908 whole entry): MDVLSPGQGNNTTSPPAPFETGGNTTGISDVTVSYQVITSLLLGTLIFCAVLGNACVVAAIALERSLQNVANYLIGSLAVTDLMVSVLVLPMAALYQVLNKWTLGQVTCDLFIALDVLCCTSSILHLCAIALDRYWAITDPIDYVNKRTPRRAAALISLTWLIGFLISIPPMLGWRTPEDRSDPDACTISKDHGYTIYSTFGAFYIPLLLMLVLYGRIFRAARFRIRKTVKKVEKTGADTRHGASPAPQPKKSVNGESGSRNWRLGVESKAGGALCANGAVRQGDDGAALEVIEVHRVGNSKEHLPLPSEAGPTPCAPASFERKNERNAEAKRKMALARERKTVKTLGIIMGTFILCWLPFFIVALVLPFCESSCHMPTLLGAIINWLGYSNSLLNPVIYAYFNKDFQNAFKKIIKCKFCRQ

[5] = Ratio of drug uptake in monkey hippocampus to cerebellum; type: ADME, tissue-based, Macaca mulatta; settings: rhesus monkey, in vivo
[6] = Ratio of drug uptake in monkey anterior cingulate cortex to cerebellum; type: ADME, tissue-based, Macaca mulatta; settings: rhesus monkey, in vivo
[7] = Drug uptake ratio in cynomolgus monkey occipital cortex to cerebellum at 30 to 40 mins postinjection; type: ADME, organism-based, Macaca fascicularis; settings: in vivo, time 30-40 min
[8] = Drug uptake ratio in cynomolgus monkey globus pallidus to cerebellum at 30 to 40 mins postinjection; type: ADME, organism-based, Macaca fascicularis; settings: in vivo, time 30-40 min
[9] = Drug metabolism in monkey plasma assessed as unchanged compound at 120 mins postinjection relative to control; type: ADME, organism-based, Macaca mulatta; settings: rhesus monkey, read-out: Stability
[10] = target: T2, 5-hydroxytryptamine receptor 1A
[11] = target: T2, 5-hydroxytryptamine receptor 1A; assay: Inhibition of 5-HT1A receptor (unknown origin)
[12] = Ratio of drug uptake in human cortex to cerebellum assessed as increase in uptake relative to control; type: ADME, tissue-based
D(2) dopamine receptor = D(2) dopamine receptor (Rattus norvegicus, UniProt P61169); assay: Displacement of [3H]-spiperone from rat frontal cortex membrane homogenate D2 receptor; type: cell membranes
[13] = target: T3, Alpha-1A adrenergic receptor (Rattus norvegicus, UniProt P43140); assay: Displacement of [3H]-prazosin from rat whole cortex membrane homogenate alpha 1 adrenergic receptor; type: cell membranes
T3 sequence (P43140 whole entry): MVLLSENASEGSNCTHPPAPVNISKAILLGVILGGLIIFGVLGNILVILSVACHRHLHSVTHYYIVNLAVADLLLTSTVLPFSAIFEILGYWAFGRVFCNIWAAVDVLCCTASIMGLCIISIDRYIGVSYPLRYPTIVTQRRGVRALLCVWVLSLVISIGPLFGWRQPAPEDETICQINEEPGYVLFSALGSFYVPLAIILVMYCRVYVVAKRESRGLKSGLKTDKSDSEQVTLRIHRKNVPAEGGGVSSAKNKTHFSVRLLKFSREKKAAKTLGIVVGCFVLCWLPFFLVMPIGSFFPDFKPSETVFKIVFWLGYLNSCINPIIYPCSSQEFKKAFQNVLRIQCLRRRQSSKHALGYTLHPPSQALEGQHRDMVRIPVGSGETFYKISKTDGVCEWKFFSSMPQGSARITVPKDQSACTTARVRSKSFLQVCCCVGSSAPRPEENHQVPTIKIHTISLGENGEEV

[14] = Binding affinity to rhesus monkey 5-HT1B receptor assessed as inhibition constant; set-up: species or system Macaca mulatta
[15] = Binding affinity to rhesus monkey 5-HT1D receptor assessed as inhibition constant; set-up: species or system Macaca mulatta
[16] = Drug uptake ratio in cat brain dorsal raphe nucleus to cerebellum measured after 20 to 30 mins by camera ClearPET LYSO/LuYAP Phoswich-scanner analysis; type: ADME, tissue-based, Felis catus; settings: time 20-30 min
[17] = Drug uptake ratio in Sprague-Dawley rat brain cingulate cortex to cerebellum measured after 20 to 30 mins by camera ClearPET LYSO/LuYAP Phoswich-scanner analysis; type: ADME, tissue-based; settings: time 20-30 min
[18] = Ratio of drug uptake in macaque brain occipital cortex to cerebellum at 3680 to 4035 Ci/mmol, iv by PET imaging upto 100 mins relative to control; type: ADME, organism-based; settings: macaca, in vivo, 1.667 h, dose 3680-4035 Ci/mmol
[19] = target: T4, 5-hydroxytryptamine receptor 1B (Cavia porcellus, UniProt O08892); assay: Binding affinity to guinea pig 5-HT1B receptor assessed as inhibition constant by autoradiographic analysis
[20] = Drug uptake in macaque brain at 3680 to 4035 Ci/mmol, iv measured as percentage of injected dose by PET imaging at 7.5 mins relative to control; type: ADME, organism-based; settings: macaca, in vivo, 0.125 h, dose 3680-4035 Ci/mmol
[21] = Ratio of drug uptake in macaque brain thalamus to cerebellum at 3680 to 4035 Ci/mmol, iv by PET imaging upto 100 mins relative to control; type: ADME, organism-based; settings: macaca, in vivo, 1.667 h, dose 3680-4035 Ci/mmol
[22] = Ratio of drug uptake in macaque brain striatopallidal complex to cerebellum at 3680 to 4035 Ci/mmol, iv by PET imaging upto 100 mins relative to control; type: ADME, organism-based; settings: macaca, in vivo, 1.667 h, dose 3680-4035 Ci/mmol
[23] = Ratio of drug uptake in macaque brain frontal cortex to cerebellum at 3680 to 4035 Ci/mmol, iv by PET imaging upto 100 mins relative to control; type: ADME, organism-based; settings: macaca, in vivo, 1.667 h, dose 3680-4035 Ci/mmol
[24] = target: T4, 5-hydroxytryptamine receptor 1B; assay: Binding affinity to guinea pig 5-HT1B receptor assessed as dissociation constant by autoradiographic analysis
[25] = target: T2, 5-hydroxytryptamine receptor 1A; assay: Displacement of [3H]-8-OH-DPAT from 5HT1A receptor (unknown origin)
[26] = target: Serotonin 2 (5-HT2) receptor (Homo sapiens, UniProt P41595+P28223+P28335); assay: Binding affinity to 5-HT2 receptor (unknown origin) assessed as dissociation constant; type: protein assay

T4 sequence (O08892 whole entry): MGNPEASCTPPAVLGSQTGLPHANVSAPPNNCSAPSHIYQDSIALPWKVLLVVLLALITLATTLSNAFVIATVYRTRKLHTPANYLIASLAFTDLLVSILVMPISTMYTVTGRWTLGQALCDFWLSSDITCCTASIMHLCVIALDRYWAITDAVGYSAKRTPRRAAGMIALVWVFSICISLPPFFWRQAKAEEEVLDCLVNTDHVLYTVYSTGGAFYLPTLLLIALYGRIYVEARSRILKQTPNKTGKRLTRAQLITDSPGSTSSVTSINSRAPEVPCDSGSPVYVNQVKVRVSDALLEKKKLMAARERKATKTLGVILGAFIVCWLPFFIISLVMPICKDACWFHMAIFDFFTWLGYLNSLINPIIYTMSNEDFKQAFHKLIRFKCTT
D(2) dopamine receptor, sequence (P61169 whole entry): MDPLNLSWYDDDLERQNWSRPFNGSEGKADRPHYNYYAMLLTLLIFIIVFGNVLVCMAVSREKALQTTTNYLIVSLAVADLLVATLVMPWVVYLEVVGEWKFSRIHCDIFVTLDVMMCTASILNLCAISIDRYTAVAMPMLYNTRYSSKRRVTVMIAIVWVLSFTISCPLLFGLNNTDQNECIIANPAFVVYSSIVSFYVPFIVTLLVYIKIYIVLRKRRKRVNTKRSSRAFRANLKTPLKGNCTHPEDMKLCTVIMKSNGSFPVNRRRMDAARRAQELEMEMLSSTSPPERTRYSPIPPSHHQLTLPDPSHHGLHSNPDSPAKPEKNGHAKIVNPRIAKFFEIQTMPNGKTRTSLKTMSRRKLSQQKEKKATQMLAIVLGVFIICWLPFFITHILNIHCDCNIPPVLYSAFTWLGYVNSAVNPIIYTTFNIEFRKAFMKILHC
D(4) dopamine receptor, sequence (P21917 whole entry): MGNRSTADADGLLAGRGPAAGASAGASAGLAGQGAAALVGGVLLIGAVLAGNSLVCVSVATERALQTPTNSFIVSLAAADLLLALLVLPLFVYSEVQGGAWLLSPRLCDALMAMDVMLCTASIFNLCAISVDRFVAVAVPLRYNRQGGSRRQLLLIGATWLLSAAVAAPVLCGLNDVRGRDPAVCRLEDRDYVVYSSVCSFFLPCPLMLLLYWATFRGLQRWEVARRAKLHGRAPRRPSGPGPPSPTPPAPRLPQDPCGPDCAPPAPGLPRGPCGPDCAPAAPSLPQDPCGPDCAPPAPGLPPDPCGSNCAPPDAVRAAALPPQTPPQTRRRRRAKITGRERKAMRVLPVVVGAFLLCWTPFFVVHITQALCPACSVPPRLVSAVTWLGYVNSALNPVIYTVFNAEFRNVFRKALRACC
5-hydroxytryptamine receptor 1D, sequence (P28221 whole entry): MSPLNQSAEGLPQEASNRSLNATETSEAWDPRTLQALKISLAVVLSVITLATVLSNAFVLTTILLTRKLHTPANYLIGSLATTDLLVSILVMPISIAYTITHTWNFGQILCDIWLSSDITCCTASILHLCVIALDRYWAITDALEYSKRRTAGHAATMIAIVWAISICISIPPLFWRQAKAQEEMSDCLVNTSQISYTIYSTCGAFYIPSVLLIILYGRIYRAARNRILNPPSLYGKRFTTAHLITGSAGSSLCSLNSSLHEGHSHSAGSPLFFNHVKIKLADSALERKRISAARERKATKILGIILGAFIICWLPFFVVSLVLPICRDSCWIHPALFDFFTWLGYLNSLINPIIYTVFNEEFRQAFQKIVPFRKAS
5-hydroxytryptamine receptor 2B, sequence (P41595 whole entry): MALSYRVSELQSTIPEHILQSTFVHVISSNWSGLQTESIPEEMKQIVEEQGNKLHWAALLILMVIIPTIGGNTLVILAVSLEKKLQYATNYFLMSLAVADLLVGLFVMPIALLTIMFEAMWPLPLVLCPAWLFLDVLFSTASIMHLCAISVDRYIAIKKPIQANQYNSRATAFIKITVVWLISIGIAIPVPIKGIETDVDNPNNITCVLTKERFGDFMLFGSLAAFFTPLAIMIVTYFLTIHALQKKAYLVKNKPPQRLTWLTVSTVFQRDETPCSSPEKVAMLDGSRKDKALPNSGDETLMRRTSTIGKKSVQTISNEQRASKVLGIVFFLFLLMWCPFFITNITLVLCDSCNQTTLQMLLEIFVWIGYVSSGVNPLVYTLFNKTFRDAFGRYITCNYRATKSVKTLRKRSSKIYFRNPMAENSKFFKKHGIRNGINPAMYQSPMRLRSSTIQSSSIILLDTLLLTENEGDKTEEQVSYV

In the case of `O=C(NCCN1CCN(c2cccc3c2OCCO3)CC1)c1ccc(F)cc1`, the Ki [1] is reported as 40 nM, the Ki [2] is reported as 46 nM and the Ki (D(4) dopamine receptor) is reported as 4 nM. For the same compound, the Ki [3] was 25 nM and the Ki [4] was 0.1 nM.

`O=C(NCCN1CCN(c2cccc3c2OCCO3)CC1)c1ccc([18F])cc1` showed a Ratio [5] of 1.7 and a Ratio [6] of 1.7.

For `[11CH3]N1CCN(c2cc(F)cc3c(=O)cc(C(=O)Nc4ccc(N5CCOCC5)c(F)c4)oc23)CC1`, the Ratio [7] was 2.2, the Ratio [8] was 2.5 and the remaining at 2 h [9] was > 40%.

Compound `CCCN(CCC)C1CCc2ccc3[nH]cc(C=O)c3c2C1` (centres undefined) has a Ki [10] of 1.2 nM and an IC50 [11] of 1.2 nM.

`[2H]C([2H])(Cn1c(=S)[nH]c2ccccc2c1=O)N1CCC(C(=O)c2ccc([18F])cc2)CC1` showed a Drug uptake [12] of 26%.

`CCN(CC)C(=O)[C@@H]1C=C2c3cccc4c3c(c(Br)n4C)CC2N(C)C1` (some centres undefined) showed a Ki (D(2) dopamine receptor) of 3.9 nM and a Ki [13] of 34 nM.

With `COC(C)(C)c1ccc(N2CC[C@@H](Cc3ccccc3N3CCN(C)CC3)C2=O)cc1` the Ki [14] was 1.2 nM and the Ki [15] was 12 nM.

Compound `Cc1cnc(CNCC2(F)CCN(C(=O)c3ccc([18F])c(Cl)c3)CC2)nc1` has a Ratio [16] of 1.5, a Ki [10] of 2.24 nM and a Ratio [17] of 1.6.

In the case of `Cc1ccc(N2CCN([11CH3])CC2)c2oc(C(=O)Nc3ccc(N4CCOCC4)cc3)cc(=O)c12`, the Ratio [18] is reported as 4.2, the Ki [19] is reported as 0.01 nM and the Drug uptake [20] is reported as 3%. It also gave a Ratio [21] of 2.6, a Ratio [22] of 4.1 and a Ratio [23] of 2.6. The Kd [24] was 0.4 nM.

`CSc1cccc(C(=O)NC[C@@H]2CCCN2CCc2ccccc2)c1` gave a Ki [25] of 4.3 nM.

Compound `CN(C)CCO/N=C(/C=C/c1ccc(O)cc1)c1ccccc1F` [EPLIVANSERIN] has a Kd [26] of 1.2 nM.

— ChEMBL document CHEMBL5108009, “Positron Emission Tomography (PET) Imaging Tracers for Serotonin Receptors” (J Med Chem, 2022)
